Counter-ions that a name gives are not always drawn.
Target: GCN2 (Homo sapiens, UniProt Q9P2K8)
Assay: GCN2 enzyme assay (TR-FRET Lanthascreen, GFP-eIF2alpha phosphorylation)
Type: biochemical
Conditions: 10 μM ATP, 80 nM GFP-eIF2a, 30 nM GCN2
Description: GCN2: Assay Principle & Conditions
This assay can quantificate the activity of the serin kinase GCN2 (general control non-derepressible-2).
This kinase is involved in the stress metabolism of cells. It is activated upon starvation (amino acid depletion). Its natural substrate is eIF2a (eukaryotic initiation factor 2 alpha subunit), a translation factor, which gets activated (phosphorylated) by GCN2 in case of an amino acid bottleneck in the cells. This in turn leads to a halt of the protein synthesis. Inhibition of GCN2 results in stopping this mechanism: The cell can not stop protein production upon “starvation” stress.
The assay is run in two steps: the enzymatic reaction and the detection step. In the first step GCN2 is incubated with 10 μM ATP and 80 nM of the GFP-labelled substrate eIF2alpha at room temperature.
The enzymatic reaction is stopped by addition of EDTA. The amount of phosphorylated eIF2alpha is determined by TR-FRET (Lanthascreen): A complex is formed consisting of antibody and GFP labelled phospho-eIF2a, which allows a FRET upon exitation at 340 nm.
Final Concentrations in the Enzymatic Reaction

Sequence of GCN2 (Q9P2K8 whole entry, species assumed): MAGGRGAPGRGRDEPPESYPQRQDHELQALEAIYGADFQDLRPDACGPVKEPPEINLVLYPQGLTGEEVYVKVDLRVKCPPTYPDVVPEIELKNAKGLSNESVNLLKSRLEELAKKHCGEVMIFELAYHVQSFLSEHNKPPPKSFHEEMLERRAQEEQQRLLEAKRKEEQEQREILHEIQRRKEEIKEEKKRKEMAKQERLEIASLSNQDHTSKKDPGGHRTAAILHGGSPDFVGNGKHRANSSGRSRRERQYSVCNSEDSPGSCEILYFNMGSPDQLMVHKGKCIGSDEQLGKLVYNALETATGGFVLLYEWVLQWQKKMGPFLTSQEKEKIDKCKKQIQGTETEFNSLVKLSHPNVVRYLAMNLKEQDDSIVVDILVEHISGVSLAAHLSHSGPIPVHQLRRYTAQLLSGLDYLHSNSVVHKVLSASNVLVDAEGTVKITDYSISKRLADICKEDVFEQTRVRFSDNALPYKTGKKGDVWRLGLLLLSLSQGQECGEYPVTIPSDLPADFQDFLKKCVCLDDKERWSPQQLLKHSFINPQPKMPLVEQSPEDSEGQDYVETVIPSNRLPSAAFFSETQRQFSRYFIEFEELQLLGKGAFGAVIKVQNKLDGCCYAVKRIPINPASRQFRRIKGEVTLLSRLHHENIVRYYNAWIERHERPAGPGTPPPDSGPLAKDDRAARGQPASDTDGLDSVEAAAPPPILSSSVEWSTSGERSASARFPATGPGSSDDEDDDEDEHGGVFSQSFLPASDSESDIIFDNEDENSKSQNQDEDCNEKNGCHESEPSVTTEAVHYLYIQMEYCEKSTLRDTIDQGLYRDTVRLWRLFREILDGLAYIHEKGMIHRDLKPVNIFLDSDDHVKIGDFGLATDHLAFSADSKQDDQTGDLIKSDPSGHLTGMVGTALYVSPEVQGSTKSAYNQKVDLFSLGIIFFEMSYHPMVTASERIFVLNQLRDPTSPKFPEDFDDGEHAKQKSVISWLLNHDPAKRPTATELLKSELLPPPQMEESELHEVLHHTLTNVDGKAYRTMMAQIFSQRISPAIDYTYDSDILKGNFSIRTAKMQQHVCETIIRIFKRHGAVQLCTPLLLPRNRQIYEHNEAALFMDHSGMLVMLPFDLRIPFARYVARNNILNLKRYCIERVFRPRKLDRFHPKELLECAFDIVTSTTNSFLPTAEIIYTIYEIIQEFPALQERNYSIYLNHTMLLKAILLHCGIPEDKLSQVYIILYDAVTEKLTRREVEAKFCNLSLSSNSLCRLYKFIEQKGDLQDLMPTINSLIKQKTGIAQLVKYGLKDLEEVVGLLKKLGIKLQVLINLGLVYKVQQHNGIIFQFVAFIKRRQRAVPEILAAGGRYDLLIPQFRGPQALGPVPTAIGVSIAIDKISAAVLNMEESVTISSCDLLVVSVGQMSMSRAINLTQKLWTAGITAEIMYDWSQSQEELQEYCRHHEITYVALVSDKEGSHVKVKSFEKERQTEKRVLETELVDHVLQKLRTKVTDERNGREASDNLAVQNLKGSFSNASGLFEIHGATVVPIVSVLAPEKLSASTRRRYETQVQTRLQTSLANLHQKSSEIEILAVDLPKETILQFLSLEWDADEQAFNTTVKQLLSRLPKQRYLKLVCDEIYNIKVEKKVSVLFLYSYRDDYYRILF

IC50 | Structure (SMILES)
5000 to 10000 nM | COc1ccc(-n2nnc3cnc(N[C@H]4CC[C@H](NC(=O)OC(C)(C)C)C4)nc32)cc1 (racemic) [A35, {trans-3-[3-(4-methoxy-phenyl)-3H-[1,2,3]triazolo[4,5-d]pyrimidin-5-ylamino]-cyclopentyl}-carbamic acid tert-butyl ester]
1000 to 5000 nM | COc1ccc(-n2nnc3cnc(N[C@@H]4CC[C@](O)(C(F)(F)F)C4)nc32)cc1 (relative stereo) [A67, trans-3-[3-(4-methoxy-phenyl)-3H-[1,2,3]triazolo[4,5-d]pyrimidin-5-ylamino]-1-trifluoromethyl-cyclopentanol]
< 1000 nM | COc1ccc(-n2nnc3cnc(N[C@H]4CC[C@H](S(C)(=O)=O)C4)nc32)cc1 (relative stereo) [A263, ((trans)-3-methanesulfonyl-cyclopentyl)-[3-(4-methoxy-phenyl)-3H-[1,2,3]triazolo[4,5-d]pyrimidin-5-yl]-amine]
1000 to 5000 nM | COc1ccc(-n2nnc3cnc(NC4CCN(C)CC4)nc32)cc1 [A18, [3-(4-methoxy-phenyl)-3H-[1,2,3]triazolo[4,5-d]pyrimidin-5-yl]-(1-methyl-piperidin-4-yl)-amine]
< 1000 nM | COc1ccc(-n2nnc3cnc(NC4CCN(C(=O)CN(C)C)CC4)nc32)cc1 [A48, 2-dimethylamino-1-{4-[3-(4-methoxy-phenyl)-3H-[1,2,3]triazolo-[4,5-d]pyrimidin-5-ylamino]-piperidin-1-yl}-ethanone]
< 1000 nM | O=C(O)[C@H]1CC[C@@H](Nc2ncc3nnn(-c4ccc5ncccc5c4)c3n2)C1 [A188, (1S,3R)-3-(3-quinolin-6-yl-3H-[1,2,3]triazolo[4,5-d]pyrimidin-5-ylamino)-cyclopentanecarboxylic acid]
< 1000 nM | COc1ccc(-n2nnc3cnc(NCCCOCCCN)nc32)cc1 [A76, [3-(3-amino-propoxy)-propyl]-[3-(4-methoxy-phenyl)-3H-[1,2,3]triazolo[4,5-d]pyrimidin-5-yl]-amine formate]
< 1000 nM | CCNc1ncc2nnn(-c3ccc(OC)cc3)c2n1 [A16, ethyl-[3-(4-methoxy-phenyl)-3H-[1,2,3]triazolo[4,5-d]pyrimidin-5-yl]-amine]
< 1000 nM | COc1ccc(-n2nnc3cnc(N[C@H]4CC[C@@H](O)CC4)nc32)cc1 [A26, cis-4-[3-(4-methoxy-phenyl)-3H-[1,2,3]triazolo[4,5-d]pyrimidin-5-ylamino]-cyclohexanol]
1000 to 5000 nM | COc1ccc(-n2nnc3cnc(N[C@H]4CCN(C(=O)CCN(C)C)C4)nc32)cc1 [A92, 3-dimethylamino-1-{(S)-3-[3-(4-methoxy-phenyl)-3H-[1,2,3]triazolo[4,5-d]-pyrimidin-5-ylamino]-pyrrolidin-1-yl}-propan-1-one formate]
1000 to 5000 nM | COc1ccc(-n2nnc3cnc(N[C@@H]4CCN(C(=O)OC(C)(C)C)C4)nc32)cc1 [A65, (R)-3-[3-(4-methoxy-phenyl)-3H-[1,2,3]triazolo[4,5-d]pyrimidin-5-ylamino]-pyrrolidine-1-carboxylic acid tert-butyl ester]
5000 to 10000 nM | COc1ccc(-n2nnc3cnc(NC4CC(C)(C)N(C)C(C)(C)C4)nc32)cc1 [A15, [3-(4-methoxy-phenyl)-3H-[1,2,3]triazolo[4,5-d]pyrimidin-5-yl]-(1,2,2,6,6-pentamethyl-piperidin-4-yl)-amine]
< 1000 nM | CCOc1ccc(-n2nnc3cnc(N[C@@H]4CC[C@@H](O)C4)nc32)cn1 (relative stereo) [A206, (trans)-3-[3-(6-ethoxy-pyridin-3-yl)-3H-[1,2,3]triazolo[4,5-d]pyrimidin-5-ylamino]-cyclopentanol]
< 1000 nM | COc1ccc(-n2nnc3cnc(NC4CCN(CCN5CCCC5)CC4)nc32)cc1 [A86, [3-(4-methoxy-phenyl)-3H-[1,2,3]triazolo[4,5-d]pyrimidin-5-yl]-[1-(2-pyrrolidin-1-yl-ethyl)-piperidin-4-yl]-amine]
< 1000 nM | COc1ccc(-n2nnc3cnc(NC4CCCC4)nc32)cc1 [A12, cyclopentyl-[3-(4-methoxy-phenyl)-3H-[1,2,3]triazolo[4,5-d]pyrimidin-5-yl]-amine]
